{
  "source": "patent US20140315972A1",
  "about": "“RS)-2-(2-oxo-4-phenylpyrrolidin-1-yl)acetamide compound having modulatory activity with a commensurate effect, pharmaceutical substance (variants) and its application, composition (variants) thereof” (priority 2011, published 2014)",
  "key": {"[1]": {"test_system": "mice", "assay": "Cross maze exploratory behavior, HEF and LEF mice", "type": "in vivo", "details": "i.p. once a day 5 days, Compounds 1 and 4 100 mg/kg, Piracetam 200 mg/kg"}, "[2]": {"test_system": "mice", "assay": "Duration of swimming in cold (2° C.) and normal (25° C.) water", "type": "in vivo", "details": "for Duration of swimming at day 28: 4-week administration 50 mg/kg", "description": "Stimulatory effect on the duration of swimming in cold (2° C.) and normal (25° C.) water (Table 8.1-8.1.1) of Phenotropil (25 and 50 mg/kg) compared with the control (distilled water) and Benzedrine (2.5 mg/kg) was studied in white outbred male mice (18-26 g) compared to control (distilled water) when intraperitoneally administered, 60 min after the administration and with a course administration for 4 weeks administration on day 28 (Table 8.1.2). […] At normal temperature of water, the effect of Benzedrine was not modified and stayed at 34%.\nThe advantage of psychomodulator Phenotropil is obvious both with the single dose and the course use, by the effect on physical performance and stability of the body, both in normal and more adverse temperature conditions."}, "[3]": {"test_system": "cAMP", "assay": "cAMP level in blood plasma of mice", "type": "in vivo", "details": "for increase of cAMP level: mice, 60 minutes before test; for cAMP level: mouse blood plasma, one hour after a single injection"}, "[4]": {"test_system": "male subjects", "assay": "Anti-seasick (anti-kinetosis) activity, visual-vestibular effects", "type": "in vivo, human", "description": "Investigations of the anti-seasick (anti-kinetosis) activity of agents with creation of visual-vestibular effects modeling motion sickness were performed on male subjects (23-35 years). Test with continuous exposure to the Coriolis acceleration was performed by rotating vestibulometric chair with angular velocity 180°/s. The eyes of the subject were open, while the optokinetic drum rotated in one direction with the chair with a speed of 90°/s. The time of visual-vestibular effect, vestibulo-vegetative reactions, optokinetic nystagmus before and after kinesia was determined when the drum rotated alternately for two minutes in the R- and S-directions at a speed of 90° s, with a break for 1 minute between rotations, as well as the severity of vestibular effects was measured and the Km was calculated. The studies were conducted 60 minutes after administration of Phenotropil in doses of 25, 50, 100 and 300 mg. Baseline state values and placebo values served as control. Alternate approaches for each participant were performed a week after each previous test. The modulation factor under normal conditions without exposure was 0.97."}, "[5]": {"test_system": "MDA", "assay": "MDA (lipid peroxidation) in saliva after topical course", "type": "in vivo", "details": "human saliva after topical course treatment, 100 mg per 100 ml water", "from_the_text": "Studies of the effects of Phenotropil on condition of paradontium, enamel and dentin with topic application involved men and women (45-54 years) diagnosed with periodontitis, parodontosis and caries. Enrollment of groups by separate indicators in this age failed. In the vast majority of subjects, the diseases were combined. The gender ratio in groups was: 30.0% men and 70.0% women, the ratio of smokers to non-smokers 60:40, the number of female smokers was higher than male smokers by 35.0%. All patients received every three days the required amount of 0.1%, 0.2% or 0.3% solution of Phenotropil or placebo. The solutions were applied daily as dental trays (for 30 sec.) in the morning and evening at 30 ml per application for 30 days. Food and drinks intake, including water, were not recommended for 2 hours after the procedure. All patients underwent a dental check-up and standard hygienic treatment with removing plaque and dental scale and lavaging the gingival pockets with 1% Phenotropil solution. For each subject, the studied parameters were recorded; the aggregate integral indicator of the general periodontal condition of enamel and dentin was calculated, in the negative scores. The examinations were conducted once a week throughout the period of monotherapy. […]"}, "[6]": {"test_system": "patients", "assay": "Seborrhea of scalp and face skin, topical solution", "type": "in vivo, human", "details": "for Efficacy expressed in points on a 4-point scale (seborrhea): humans", "description": "A study of effect of Phenotropil on the scalp and face skin in seborrhea oleosa and on the scalp skin in dry seborrhea, as well in the mixed form, was performed on mixed groups of both sexes (15-37 years). The 0.1% Phenotropil solution was used. In the group with mixed form, additional Phenotropil tablets were administered at a dose of 100 mg per day (in the morning). The baseline examinations were used as control. The prepared samples were rubbed into the scalp once a day 1 or 2 hours before bedtime. In the case of acneiform rash, the skin was wiped in the morning and evening by cotton pads soaked (as usual lotion) by 0.1% aqueous Phenotropil. Washing the hair using shampoo was not recommended. A neutral baby soap “Alice” by OAO Svoboda and the rinse prepared with 25 ml of lemon juice and 100 mg Phenotropil powder per 1000.0 ml water were used. Studies were conducted for 28 calendar days with monitoring examinations every 14 days. In the dry seborrhea group, three patients withdrew from the study after two weeks due to reluctance to undergo further examination; they found it difficult to comply with the regime of the detergents use. The skin state was assessed by a 4-point system, where 0—absent, 1—the effect intensity less than 50.0%, 2—the effect intensity more than 50.0%, 3—the effect intensity more than 80% but less than 100.0% of the cases."}, "[7]": {"details": "male subjects, 25, 50, 100, 300 mg"}},
  "note": "Marks after values point to notes of the source that are not given here.",
  "data": [
    {"smiles": "NC(=O)CN1CC(c2ccccc2)CC1=O", "note": "(racemic) [Compound 1, (RS)-2-(2-oxo-4-phenylpyrrolidine-1-yl)acetamide]", "values": [
      {"measurement": "Kt (trigger transmission coefficient)", "setting": "[1]; HEF mice", "result": "3.3 ± 0.3"},
      {"measurement": "Number of compartment explorations", "setting": "[1]; HEF mice", "result": "4.3 ± 0.4 //"},
      {"measurement": "Number of surveillances", "setting": "[1]; HEF mice", "result": "1.3 ± 0.2"},
      {"measurement": "Kt (trigger transmission coefficient)", "setting": "[1]; LEF mice", "result": "3.1 ± 0.35"},
      {"measurement": "Number of compartment explorations", "setting": "[1]; LEF mice", "result": "5.0 ± 0.5 //"},
      {"measurement": "Number of surveillances", "setting": "[1]; LEF mice", "result": "1.6 ± 0.2"},
      {"measurement": "Kt (trigger transmission coefficient)", "setting": "[1]; population as a whole", "result": "3.2 ± 0.45"},
      {"measurement": "Number of compartment explorations", "setting": "[1]; population as a whole", "result": "4.5 ± 0.7 //"},
      {"measurement": "Number of surveillances", "setting": "[1]; population as a whole", "result": "1.4 ± 0.2"},
      {"measurement": "Duration of swimming", "setting": "[2]; single dose 25 mg/kg i.p.", "result": "161.90 ± 15.00", "unit": "min"},
      {"measurement": "Duration of swimming", "setting": "[2]; single dose 50 mg/kg i.p.", "result": "209.83 ± 14.85", "unit": "min"},
      {"measurement": "Duration of swimming at day 28", "setting": "[2]; water 2° C.", "result": "2.34 ± 0.15", "unit": "min"},
      {"measurement": "Duration of swimming", "setting": "[2]; water 2° C., single dose 25 mg/kg i.p.", "result": "2.10 ± 0.17", "unit": "min"},
      {"measurement": "Duration of swimming", "setting": "[2]; water 2° C., single dose 50 mg/kg i.p.", "result": "2.30 ± 0.22", "unit": "min"},
      {"measurement": "Duration of swimming at day 28", "setting": "[2]; water 25° C.", "result": "222.03 ± 10.95", "unit": "min"},
      {"measurement": "Duration of swimming vs control", "setting": "[2]; water 25° C., single dose 25 mg/kg i.p.", "result": "+35%"},
      {"measurement": "increase of cAMP level", "setting": "[3]; single i.p. 10 mg/kg", "result": 21, "unit": "%"},
      {"measurement": "increase of cAMP level", "setting": "[3]; single i.p. 50 mg/kg", "result": 65.5, "unit": "%"},
      {"measurement": "increase of cAMP level", "setting": "[3]; single i.p. 100 mg/kg", "result": 96.3, "unit": "%"},
      {"measurement": "cAMP level", "setting": "[3]; 10 mg/kg", "result": "4.56 ± 0.67", "unit": "pikomol/50 μl plasma"},
      {"measurement": "cAMP level", "setting": "[3]; 50 mg/kg", "result": "6.24 ± 0.81", "unit": "pikomol/50 μl plasma"},
      {"measurement": "cAMP level", "setting": "[3]; 100 mg/kg", "result": "7.40 ± 0.62", "unit": "pikomol/50 μl plasma"},
      {"measurement": "NEE, negative effects of exposure", "setting": "[4]; humans, 25-300 mg", "result": "22.5 ± 7.5", "unit": "min"},
      {"measurement": "VVE, tolerability of the visual-vestibular effects", "setting": "[4]; humans, 25-300 mg", "result": "7.70 ± 0.6", "unit": "min"},
      {"measurement": "VVR, severity of the vestibulo-vegetative reactions", "setting": "[4]; humans, 25-300 mg", "result": "2.3 ± 0.9", "unit": "points"},
      {"measurement": "improvement of visual-vestibular tolerability vs placebo, average", "setting": "[4]; [7]", "result": "+80%"},
      {"measurement": "reduction in severity of vestibulo-vegetative reactions vs placebo, average", "setting": "[4]; [7]", "result": 68, "unit": "%"},
      {"measurement": "duration of negative consequences condition", "setting": "[4]; male subjects, placebo 4-6 hours", "result": "15 to 30", "unit": "min"},
      {"measurement": "MDA content", "setting": "[5]", "result": "0.026 ± 0.0415", "unit": "nmol/L"},
      {"measurement": "therapeutic effect compared to control with simultaneous tablets", "setting": "[6]; 0.1% solution + tablets 100 mg per day", "result": 300.0, "unit": "%"},
      {"measurement": "therapeutic effect in seborrhoea compared with control", "setting": "[6]; 0.1% solution, 28 days", "result": 200.0, "unit": "%"},
      {"measurement": "Efficacy expressed in points on a 4-point scale (seborrhea)", "setting": "[6]; DF (dry form), topically 0.1% aqueous solution", "result": "2* (the effect intensity more than 50.0%)"},
      {"measurement": "Efficacy expressed in points on a 4-point scale (seborrhea)", "setting": "[6]; MF (mixed form), oral 100 mg", "result": "1* (the effect intensity less than 50.0%)"},
      {"measurement": "Efficacy expressed in points on a 4-point scale (seborrhea)", "setting": "[6]; MF (mixed form), topically 0.1% aqueous solution + 100 mg orally", "result": "3* (the effect intensity more than 80% but less than 100.0% of the cases)"},
      {"measurement": "Efficacy expressed in points on a 4-point scale (seborrhea)", "setting": "[6]; OF (oily form), topically 0.1% aqueous solution", "result": "2* (the effect intensity more than 50.0%)"}
    ]}
  ]
}
